Measured values: publication doi:10.1101/2023.11.24.568596v1 (biorxiv, 2023)
Values belong to the compound of their own block, whether it stands above or below them.

Legend:
Details in all cases: binder
JNK2 = JNK2 (Homo sapiens, UniProt P45984)
CDK2 = CDK2 (Homo sapiens, UniProt P24941)
MSK1b = MSK1b (Homo sapiens, UniProt O75582)
NEK7 = NEK7 (Homo sapiens, UniProt Q8TDX7)
PCTAIRE1 = PCTAIRE1 (Homo sapiens, UniProt Q00536)
BRPF1 = molecular target: T1, BRPF1 (Homo sapiens, UniProt P55201)
T1 sequence (P55201 1-1214): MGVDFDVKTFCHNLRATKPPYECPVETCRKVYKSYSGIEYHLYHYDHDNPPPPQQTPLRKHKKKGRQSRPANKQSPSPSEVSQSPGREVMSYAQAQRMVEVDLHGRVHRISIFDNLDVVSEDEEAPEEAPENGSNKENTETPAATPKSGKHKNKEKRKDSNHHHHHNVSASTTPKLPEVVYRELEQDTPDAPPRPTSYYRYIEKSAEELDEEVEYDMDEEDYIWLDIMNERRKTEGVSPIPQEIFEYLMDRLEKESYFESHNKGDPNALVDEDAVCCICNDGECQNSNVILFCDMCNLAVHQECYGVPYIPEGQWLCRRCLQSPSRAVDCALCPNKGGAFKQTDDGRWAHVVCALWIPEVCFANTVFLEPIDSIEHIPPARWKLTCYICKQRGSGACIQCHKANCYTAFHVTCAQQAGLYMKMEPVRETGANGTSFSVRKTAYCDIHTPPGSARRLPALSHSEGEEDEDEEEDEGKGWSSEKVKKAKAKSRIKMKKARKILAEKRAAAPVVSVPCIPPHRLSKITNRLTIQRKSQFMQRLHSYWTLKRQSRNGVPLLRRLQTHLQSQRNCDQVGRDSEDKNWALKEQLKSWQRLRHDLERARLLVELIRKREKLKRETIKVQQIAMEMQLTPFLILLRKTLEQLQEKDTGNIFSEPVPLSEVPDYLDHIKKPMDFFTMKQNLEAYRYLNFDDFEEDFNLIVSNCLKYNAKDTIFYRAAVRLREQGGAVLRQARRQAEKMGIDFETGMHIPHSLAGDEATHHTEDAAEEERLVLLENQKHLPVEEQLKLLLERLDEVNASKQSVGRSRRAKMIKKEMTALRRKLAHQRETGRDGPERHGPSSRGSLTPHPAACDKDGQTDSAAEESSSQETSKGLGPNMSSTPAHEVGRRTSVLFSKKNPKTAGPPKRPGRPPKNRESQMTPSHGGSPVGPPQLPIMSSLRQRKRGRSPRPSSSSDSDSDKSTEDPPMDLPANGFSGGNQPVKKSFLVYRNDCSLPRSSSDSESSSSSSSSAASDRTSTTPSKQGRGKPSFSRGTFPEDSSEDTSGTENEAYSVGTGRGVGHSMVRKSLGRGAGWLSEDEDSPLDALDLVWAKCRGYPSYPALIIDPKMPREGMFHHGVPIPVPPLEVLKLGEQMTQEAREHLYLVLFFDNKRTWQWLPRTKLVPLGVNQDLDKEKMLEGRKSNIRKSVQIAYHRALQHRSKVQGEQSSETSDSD

GAK = molecular target: T2, GAK (Homo sapiens, UniProt O14976)
T2 sequence (O14976 1-1311): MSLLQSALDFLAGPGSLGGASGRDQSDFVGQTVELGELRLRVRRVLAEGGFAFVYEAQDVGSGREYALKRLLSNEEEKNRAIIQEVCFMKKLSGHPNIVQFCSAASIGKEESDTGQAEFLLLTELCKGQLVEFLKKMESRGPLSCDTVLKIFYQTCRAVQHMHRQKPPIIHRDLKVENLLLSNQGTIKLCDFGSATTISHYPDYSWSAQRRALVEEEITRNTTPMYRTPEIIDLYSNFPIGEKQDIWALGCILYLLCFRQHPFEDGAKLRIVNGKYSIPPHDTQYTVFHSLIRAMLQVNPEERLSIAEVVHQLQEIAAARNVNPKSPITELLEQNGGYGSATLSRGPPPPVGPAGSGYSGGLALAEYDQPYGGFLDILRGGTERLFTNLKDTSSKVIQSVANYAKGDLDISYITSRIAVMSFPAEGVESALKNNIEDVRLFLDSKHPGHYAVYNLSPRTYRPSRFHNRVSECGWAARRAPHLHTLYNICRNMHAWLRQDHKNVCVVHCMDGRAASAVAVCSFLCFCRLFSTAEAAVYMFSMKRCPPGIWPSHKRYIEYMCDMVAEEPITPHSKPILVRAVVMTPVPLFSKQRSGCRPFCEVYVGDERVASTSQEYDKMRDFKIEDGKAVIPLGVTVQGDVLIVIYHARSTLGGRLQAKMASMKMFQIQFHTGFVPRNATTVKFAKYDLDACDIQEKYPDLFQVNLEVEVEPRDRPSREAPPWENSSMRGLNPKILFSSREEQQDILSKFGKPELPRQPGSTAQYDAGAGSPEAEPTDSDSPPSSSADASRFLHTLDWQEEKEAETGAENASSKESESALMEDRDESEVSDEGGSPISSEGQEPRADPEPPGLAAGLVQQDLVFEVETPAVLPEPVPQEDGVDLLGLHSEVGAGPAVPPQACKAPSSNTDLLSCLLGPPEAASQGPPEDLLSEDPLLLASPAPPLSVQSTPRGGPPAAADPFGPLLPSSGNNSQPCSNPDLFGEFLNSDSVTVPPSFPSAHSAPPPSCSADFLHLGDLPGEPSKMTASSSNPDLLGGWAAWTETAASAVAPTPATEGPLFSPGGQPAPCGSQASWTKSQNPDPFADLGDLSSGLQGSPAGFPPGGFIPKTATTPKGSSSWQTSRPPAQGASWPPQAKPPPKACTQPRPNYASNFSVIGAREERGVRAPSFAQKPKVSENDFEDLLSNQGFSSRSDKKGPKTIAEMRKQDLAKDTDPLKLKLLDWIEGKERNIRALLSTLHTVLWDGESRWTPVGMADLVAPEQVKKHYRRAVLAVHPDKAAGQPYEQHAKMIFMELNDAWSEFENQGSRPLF

Chain of PCTAIRE1 (Q00536 whole entry): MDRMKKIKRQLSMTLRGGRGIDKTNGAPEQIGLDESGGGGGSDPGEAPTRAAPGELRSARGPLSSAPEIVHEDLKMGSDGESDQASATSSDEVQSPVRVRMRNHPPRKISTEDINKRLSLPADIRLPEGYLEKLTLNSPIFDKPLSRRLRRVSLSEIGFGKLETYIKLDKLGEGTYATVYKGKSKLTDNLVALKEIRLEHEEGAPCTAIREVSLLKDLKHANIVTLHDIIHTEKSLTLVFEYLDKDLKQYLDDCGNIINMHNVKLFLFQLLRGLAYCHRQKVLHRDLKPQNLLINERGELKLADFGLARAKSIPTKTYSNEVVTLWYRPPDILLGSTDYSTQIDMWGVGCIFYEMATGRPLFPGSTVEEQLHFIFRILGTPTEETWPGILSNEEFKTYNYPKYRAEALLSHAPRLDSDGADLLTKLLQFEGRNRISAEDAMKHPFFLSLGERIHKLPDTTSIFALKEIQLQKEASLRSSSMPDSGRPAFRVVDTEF
Chain of NEK7 (Q8TDX7 whole entry): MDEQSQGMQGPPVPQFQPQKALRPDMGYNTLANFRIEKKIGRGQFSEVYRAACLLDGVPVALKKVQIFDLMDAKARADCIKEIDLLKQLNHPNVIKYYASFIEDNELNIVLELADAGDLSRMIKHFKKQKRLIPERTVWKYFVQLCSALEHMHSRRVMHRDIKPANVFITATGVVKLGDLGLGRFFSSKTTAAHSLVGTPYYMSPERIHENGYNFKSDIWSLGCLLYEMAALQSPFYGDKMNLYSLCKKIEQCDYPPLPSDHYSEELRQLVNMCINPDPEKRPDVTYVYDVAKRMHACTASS
Chain of MSK1b (O75582 whole entry): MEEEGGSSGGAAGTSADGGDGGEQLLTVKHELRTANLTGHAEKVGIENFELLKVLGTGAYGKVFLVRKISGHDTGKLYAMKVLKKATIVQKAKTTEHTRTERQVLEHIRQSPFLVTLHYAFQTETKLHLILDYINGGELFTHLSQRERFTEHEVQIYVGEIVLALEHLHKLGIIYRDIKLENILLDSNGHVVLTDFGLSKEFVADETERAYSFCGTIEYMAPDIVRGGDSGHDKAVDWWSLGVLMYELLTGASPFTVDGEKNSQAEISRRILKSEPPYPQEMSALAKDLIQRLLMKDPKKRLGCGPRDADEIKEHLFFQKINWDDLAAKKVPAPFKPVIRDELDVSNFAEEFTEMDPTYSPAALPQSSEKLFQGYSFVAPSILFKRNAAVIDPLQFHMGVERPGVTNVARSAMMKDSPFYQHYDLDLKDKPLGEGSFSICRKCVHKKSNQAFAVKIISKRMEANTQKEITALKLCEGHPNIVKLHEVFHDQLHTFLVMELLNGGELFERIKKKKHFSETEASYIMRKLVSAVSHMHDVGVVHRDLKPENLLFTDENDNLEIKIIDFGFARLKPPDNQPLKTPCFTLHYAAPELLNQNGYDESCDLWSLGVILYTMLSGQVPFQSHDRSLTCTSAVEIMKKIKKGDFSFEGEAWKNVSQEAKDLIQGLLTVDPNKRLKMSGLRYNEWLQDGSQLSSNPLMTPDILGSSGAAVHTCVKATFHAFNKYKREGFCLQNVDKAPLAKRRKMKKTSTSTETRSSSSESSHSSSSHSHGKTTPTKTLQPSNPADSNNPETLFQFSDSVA
Chain of JNK2 (P45984 whole entry): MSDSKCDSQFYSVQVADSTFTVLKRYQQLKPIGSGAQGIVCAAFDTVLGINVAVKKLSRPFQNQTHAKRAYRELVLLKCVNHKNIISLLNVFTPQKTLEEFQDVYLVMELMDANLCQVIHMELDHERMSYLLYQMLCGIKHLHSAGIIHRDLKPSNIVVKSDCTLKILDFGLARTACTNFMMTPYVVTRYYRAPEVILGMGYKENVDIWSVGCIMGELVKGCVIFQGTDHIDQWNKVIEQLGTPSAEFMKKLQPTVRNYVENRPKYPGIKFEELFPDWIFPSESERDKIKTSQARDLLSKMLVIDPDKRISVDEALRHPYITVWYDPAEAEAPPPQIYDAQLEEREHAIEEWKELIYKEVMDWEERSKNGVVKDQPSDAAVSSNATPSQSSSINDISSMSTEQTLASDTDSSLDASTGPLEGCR

dTm 33 (JNK2): 3.0 °C
dTm 33 (CDK2): 6.0 °C
dTm 33 (MSK1b): 3.5 °C
dTm 33 (NEK7): -1.4 °C
dTm 33 (PCTAIRE1): 5.2 °C
dTm 33 (BRPF1): -2.7 °C
dTm 33 (GAK): 12.5 °C
SMILES: Cc1cccc(-c2ccc(-c3cc4cnc(Nc5ccc(F)c(CO)c5)nc4n(CCCCN)c3=O)c(Cl)c2)n1 [compound 33, 8-(4-Aminobutyl)-6-(2-chloro-4-(6-methylpyridin-2-yl)phenyl)-2-((4-fluoro-3-(hydroxymethyl)phenyl)amino)pyrido[2,3-d]pyrimidin-7(8H)-one]

dTm 35 (JNK2): 0.1 °C
dTm 35 (CDK2): 1.0 °C
dTm 35 (MSK1b): 3.8 °C
dTm 35 (NEK7): -2.4 °C
dTm 35 (PCTAIRE1): 0.1 °C
dTm 35 (BRPF1): -2.8 °C
dTm 35 (GAK): 13.5 °C
SMILES: COc1cc(N2CCOCC2)ccc1Nc1ncc2cc(-c3ccc(-c4cccc(C)n4)cc3Cl)c(=O)n(CCCCN)c2n1 [compound 35, 8-(4-Aminobutyl)-6-(2-chloro-4-(6-methylpyridin-2-yl)phenyl)-2-((2-methoxy-4-morpholino-phenyl)amino)pyrido[2,3-d]pyrimidin-7(8H)-one]

dTm 36 (JNK2): -0.3 °C
dTm 36 (CDK2): 0.6 °C
dTm 36 (MSK1b): 3.0 °C
dTm 36 (NEK7): -1.4 °C
dTm 36 (PCTAIRE1): 0.2 °C
dTm 36 (BRPF1): -1.2 °C
dTm 36 (GAK): 11.7 °C
SMILES: COc1cc(N2CCN(C)CC2)ccc1Nc1ncc2cc(-c3ccc(-c4cccc(C)n4)cc3Cl)c(=O)n(CCCCN)c2n1 [compound 36, 8-(4-Aminobutyl)-6-(2-chloro-4-(6-methylpyridin-2-yl)phenyl)-2-((2-methoxy-4-(4-methylpiperazin-1-yl)phenyl)amino)pyrido[2,3-d]pyrimidin-7(8H)-one]

dTm 34 (JNK2): 0.3 °C
dTm 34 (CDK2): 1.4 °C
dTm 34 (MSK1b): 2.4 °C
dTm 34 (NEK7): -1.0 °C
dTm 34 (PCTAIRE1): 0.6 °C
dTm 34 (BRPF1): -1.6 °C
dTm 34 (GAK): 9.3 °C
SMILES: COc1ccc(O)c(Nc2ncc3cc(-c4ccc(-c5cccc(C)n5)cc4Cl)c(=O)n(CCCCN)c3n2)c1 [compound 34, 8-(4-Aminobutyl)-6-(2-chloro-4-(6-methylpyridin-2-yl)phenyl)-2-((2-hydroxy-5-methoxy-phenyl)amino)pyrido[2,3-d]pyrimidin-7(8H)-one]
